The values that follow come from patent publication US9382188B2, “Aromatic ring compound” (TAKEDA PHARMACEUTICAL COMPANY LIMITED, priority 2012, dated 2016).

This assay deals with T1, human GPR40 (Homo sapiens, UniProt O14842).
T1 construct: expressed in transfected cells
T1 sequence (O14842 whole entry): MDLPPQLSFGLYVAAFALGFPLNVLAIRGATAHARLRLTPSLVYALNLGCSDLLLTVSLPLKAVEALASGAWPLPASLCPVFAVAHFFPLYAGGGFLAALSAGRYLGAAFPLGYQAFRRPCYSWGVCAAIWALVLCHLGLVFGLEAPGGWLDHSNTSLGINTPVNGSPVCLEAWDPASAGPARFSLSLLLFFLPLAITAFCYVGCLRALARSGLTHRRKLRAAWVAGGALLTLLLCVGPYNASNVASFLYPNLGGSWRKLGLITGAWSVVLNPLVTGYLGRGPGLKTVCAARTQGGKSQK
The experiment in a line: Evaluation of human GPR40 agonist activity with increase in intracellular Ca2+ concentration as an index (FLIPR Tetra). The following applies: test compound 1 μM; CHO(dhfr-) cells stably expressing human GPR40; 100% = activity of 1 μM WO2009/048527 Example 99.2, 0% = DMSO. In kind it is cell-based. The essentials:
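CHO(dhfr-) cells stably expressing human GPR40, loaded with Calcium 5 dye in HEPES/HBSS buffer with 0.2% fatty acid-free BSA and probenecid, 1 h at 37° C. Test compound added at 1 μM final; fluorescence Ca2+ rise scaled to a reference agonist at 1 μM (100%) and DMSO (0%).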
As for `COc1ccc(F)c(-c2ccc(OCc3cccc(C(CC(=O)O)C4CC4)c3)cc2C(F)C2(C#N)CCCC2)c1` (stereo not drawn) [Example 101, 3-(3-(((2-((1-cyanocyclopentyl)(fluoro)methyl)-2′-fluoro-5′-methoxybiphenyl-4-yl)oxy)methyl)phenyl)-3-cyclopropylpropanoic acid], the activation at 1 µM stood at 106%.

In the case of `CC(C)(C)Cc1cc(OCc2cccc(C(CC(=O)O)C3CC3)c2)cnc1-c1cc(OCC(F)(F)F)ccc1F` (stereo not drawn) [Example 70, 3-cyclopropyl-3-(3-(((5-(2,2-dimethylpropyl)-6-(2-fluoro-5-(2,2,2-trifluoroethoxy)phenyl)pyridin-3-yl)oxy)methyl)phenyl)propanoic acid], the activation at 1 µM is -8%.

For the compound `COc1ccc(F)c(-c2ccc(OCc3cc(C(CC(=O)O)C4CC4)ccn3)cc2CC(C)(C)C#N)c1` (stereo not drawn) [Example 27, 3-(2-(((2-(2-cyano-2-methylpropyl)-2′-fluoro-5′-methoxybiphenyl-4-yl)oxy)methyl)pyridin-4-yl)-3-cyclopropylpropanoic acid], the activation at 1 µM was 119%.

Take `COc1ccc(F)c(-c2ccc(OCc3cccc(CCC(=O)O)c3)cc2CC(C)(C)C)c1` [Example 7, 3-(3-(((2-(2,2-dimethylpropyl)-2′-fluoro-5′-methoxybiphenyl-4-yl)oxy)methyl)phenyl)propanoic acid]: the activation at 1 µM was 108%.

As to `CC(C)(C)Cc1cc(OCc2cccc(C(CC(=O)O)C3CC3)c2)cnc1-c1cc(C#N)ccc1F` (stereo not drawn) [Example 60, 3-(3-(((6-(5-cyano-2-fluorophenyl)-5-(2,2-dimethylpropyl)pyridin-3-yl)oxy)methyl)phenyl)-3-cyclopropylpropanoic acid], the activation at 1 µM was determined as 56%.

Take `COc1ccc(F)c(-c2ccc(OCc3cccc(C(CC(=O)O)C4CC4)c3)cc2C(C)C(C)(C)C)c1` (stereo not drawn) [Example 98, 3-cyclopropyl-3-(3-(((2-(3,3-dimethylbutan-2-yl)-2′-fluoro-5′-methoxybiphenyl-4-yl)oxy)methyl)phenyl)propanoic acid]: the activation at 1 µM was determined as 96%.

As for `COCCCOc1ccc(F)c(-c2ncc(OCc3cccc(C(CC(=O)O)C4CC4)c3)cc2CC(C)(C)C)c1` (stereo not drawn) [Example 72, 3-cyclopropyl-3-(3-(((5-(2,2-dimethylpropyl)-6-(2-fluoro-5-(3-methoxypropoxy)phenyl)pyridin-3-yl)oxy)methyl)phenyl)propanoic acid], the activation at 1 µM turned out to be 1%.

Take `COc1ccc(F)c(-c2ccc(OCc3cccc(C(CC(=O)O)C4CC4)c3)nc2CC(C)(C)C)c1` (stereo not drawn) [Example 4, 3-cyclopropyl-3-(3-(((6-(2,2-dimethylpropyl)-5-(2-fluoro-5-methoxyphenyl)pyridin-2-yl)oxy)methyl)phenyl)propanoic acid]: the activation at 1 µM was 110%.

Turning to `COc1ccc(F)c(-c2ccc(OCc3cccc(C(CC(=O)O)C4CC4)c3)cc2CC2(C#N)CCCCC2)c1` (stereo not drawn) [Example 99, 3-(3-(((2-((1-cyanocyclohexyl)methyl)-2′-fluoro-5′-methoxybiphenyl-4-yl)oxy)methyl)phenyl)-3-cyclopropylpropanoic acid], the activation at 1 µM came out at 93%.

With `CCC(C)(C)C(O)c1cc(OCc2cccc(C(CC(=O)O)C3CC3)c2)ccc1-c1cc(OC)ccc1F` (stereo not drawn) [Example 108, 3-cyclopropyl-3-(3-(((2′-fluoro-2-(1-hydroxy-2,2-dimethylbutyl)-5′-methoxybiphenyl-4-yl)oxy)methyl)phenyl)propanoic acid], the activation at 1 µM worked out at 129%.

On to `COc1ccc(F)c(-c2ccc(C(F)Cc3cccc(CCC(=O)O)c3)nc2CC(C)(C)C)c1` (stereo not drawn) [Example 36, 3-(3-(2-(6-(2,2-dimethylpropyl)-5-(2-fluoro-5-methoxyphenyl)pyridin-2-yl)-2-fluoroethyl)phenyl)propanoic acid], for which the activation at 1 µM came to 102%.

On to `COc1ccc(F)c(-c2ccc(OCc3cccc(C(CC(=O)O)C4CC4C#N)c3)cc2CC(C)(C)C)c1` (stereo not drawn) [Example 87, 3-(2-cyanocyclopropyl)-3-(3-(((2′-fluoro-5′-methoxy-2-neopentyl-[1,1′-biphenyl]-4-yl)oxy)methyl)phenyl)propanoic acid], for which the activation at 1 µM turned out to be 98%.

Consider `COc1ccc(Cl)c(-c2ncc(OCc3cccc(C(CC(=O)O)C4CC4)c3)cc2CC(C)(C)C)c1` (stereo not drawn) [Example 59, 3-(3-(((6-(2-chloro-5-methoxyphenyl)-5-(2,2-dimethylpropyl)pyridin-3-yl)oxy)methyl)phenyl)-3-cyclopropylpropanoic acid], for which the activation at 1 µM was 115%.

In the case of `COc1ccc(F)c(-c2ccc(OCc3cccc(C(CC(=O)O)C4CC4C#N)c3)cc2CC(C)(C)C)c1` (stereo not drawn) [Example 91, 3-(2-cyanocyclopropyl)-3-(3-(((2′-fluoro-5′-methoxy-2-neopentyl-[1,1′-biphenyl]-4-yl)oxy)methyl)phenyl)propanoic acid], the “Human GPR40 agonist activity (increase in intracellular Ca2+ concentration)” value was 97%.

As for `COc1ccc(F)c(-c2ccc(OCc3cccc(C(CC(=O)O)C4CC4)c3)cc2CC2(C#N)CC2)c1` (stereo not drawn) [Example 103, 3-(3-(((2-((1-cyanocyclopropyl)methyl)-2′-fluoro-5′-methoxybiphenyl-4-yl)oxy)methyl)phenyl)-3-cyclopropylpropanoic acid], the activation at 1 µM amounted to 119%.

Turning to `CC#CC(CC(=O)O)c1cccc(COc2ccc(-c3cc(OC)ccc3F)c(CC(C)(C)C)c2)c1` (stereo not drawn) [Example 76, 3-(3-(((2′-fluoro-5′-methoxy-2-neopentyl-[1,1′-biphenyl]-4-yl)oxy)methyl)phenyl)hex-4-ynoic acid], the activation at 1 µM worked out at 95%.

Turning to `COc1ccc(F)c(-c2ccc(N(Cc3cccc(C(CC(=O)O)C4CC4)c3)CC(F)(F)F)cc2CC(C)(C)C)c1` (stereo not drawn) [Example 11, 3-cyclopropyl-3-(3-(((2-(2,2-dimethylpropyl)-2′-fluoro-5′-methoxybiphenyl-4-yl)(2,2,2-trifluoroethyl)amino)methyl)phenyl)propanoic acid], the activation at 1 µM is 106%.

With `COc1ccc(F)c(-c2ccc(NCc3cccc(C(CC(=O)O)C4CC4)c3)cc2CC(C)(C)C)c1` (stereo not drawn) [Example 8, 3-cyclopropyl-3-(3-(((2-(2,2-dimethylpropyl)-2′-fluoro-5′-methoxybiphenyl-4-yl)amino)methyl)phenyl)propanoic acid], the activation at 1 µM is 98%.

As to `COc1cc(-c2ccc(OCc3cccc(C(CC(=O)O)C4CC4)c3)cc2CC(C)(C)C)c(F)cn1` (stereo not drawn) [Example 104, 3-cyclopropyl-3-(3-((3-(2,2-dimethylpropyl)-4-(5-fluoro-2-methoxypyridin-4-yl)phenoxy)methyl)phenyl)propanoic acid], the activation at 1 µM stood at 105%.

On to `CCC(C)(CC)Cc1cc(OCc2cccc(C(CC(=O)O)C3CC3)c2)ccc1-c1cc(OC)ccc1F` (stereo not drawn) [Example 112, 3-cyclopropyl-3-(3-(((2-(2-ethyl-2-methylbutyl)-2′-fluoro-5′-methoxybiphenyl-4-yl)oxy)methyl)phenyl)propanoic acid], for which the activation at 1 µM is 108%.

`CCCC(C)(C)Cc1cc(OCc2cccc(C(CC(=O)O)C3CC3)c2)ccc1-c1cc(OC)ccc1F` (stereo not drawn) [Example 105, 3-cyclopropyl-3-(3-(((2-(2,2-dimethylpentyl)-2′-fluoro-5′-methoxybiphenyl-4-yl)oxy)methyl)phenyl)propanoic acid]: the activation at 1 µM was 116%.
